Where a SMILES comes first, the peptide text is derived from it. The star is where a group is joined. Cbz = O=C(OCc1ccccc1)*

We go through two compounds from patent US20230372293A1, “SIRT1 INHIBITOR OR ANTAGONIST FOR USE IN PREVENTING AND/OR TREATING AN HPV INDUCED TUMOUR” (UNIVERSITA' DEGLI STUDI DEL PIEMONTE ORIENTALE "A. AVOGADRO", priority 2020, published 2023).

The subject of assay [1] is CaSki cells. Put plainly: Western blot of E6 and E7 with proteosome inhibitor MG132. The format is cell-based. The settings on record: DMSO then MG132 30 μM 8 h, vs DMSO control. On the procedure:
(§1) In order to determine whether the inhibition of E6 or E7 proteins was due to a transcriptional or post-translational modification, HeLa or CaSki cells, pre-treated for 48 h with EX527 at a concentration of 80 μM or equal volume of solvent, dimethyl sulfoxide (DMSO, SIGMA ALDRICH), were incubated with a proteosome inhibitor, MG132 (SIGMA ALDRICH) for 8 h at a concentration of 30 μM. After this incubation period at 37° C., the expression levels of viral E6 and E7 proteins were tested. The α-tubulin protein was included as an internal loading control. The cells were lysed with RIPA buffer (50 mM Tris-HCl pH 7.4; 150 mM NaCl; 1 mM EDTA; 1% Nonidet P-40; 0.1% SDS; 0.5% deoxycholate; protease inhibitors) for 30 min on ice. The samples were subsequently centrifuged for 10 minutes at 13000 rpm at 4° C. to remove cellular debris and then the proteins were quantified using the Bradford method (BIO-RAD). 30 μg of protein extract were taken, to which the appropriate amount of Laemmli sample buffer (50 mM Tris-HCl pH 6.8, 2% SDS, 10% glycerol, 2% β-mercaptoethanol) was added. The thus obtained solution was heated to 95° C. for 5 minutes and separated by polyacrylamide (12%)-SDS page gel electrophoresis. […]
On the technique in general: A western blot detects proteins with antibodies after separation by electrophoresis.

In assay [2] the test system is HeLa cells. Described as above. Type of assay: cell-based. The settings on record: DMSO then MG132 30 μM 8 h, vs DMSO control. As for the experimental part: as §1
Assay [3] relates to NOKE6E7 cells. Put plainly: Annexin V-FITC/IP apoptosis assay, EX527 and doxorubicin. The format is cell-based, human. The settings on record: DX 1.5 μM 24 h, FIG. 6. As for the experimental part:
(§2) For this purpose, HeLa, CaSki, and NOKE6E7 cells were treated with EX527 (80 μM) for 24 h, or with an equal volume of DMSO solvent and after this period elapsed, they were treated with DX (1.5 μM for HeLa and NOKE6E7, 0.5 μM for CaSki) for a further 24 h. After this incubation period at 37° C., the cells were processed using the “Annexin V-FITC Apoptosis Detection Kit” (BioLegend), a technique that allows the presence of apoptotic and necrotic cells to be detected by cytofluorimetric analysis. This assay exploits the ability of the annexin protein to bind to phosphatidylserine (PS) and thus give fluorescence in green thanks to the conjugated fluorophore (FITC, fluorescein isothiocyanate). PS is a phospholipid normally found on the inner side of the cell membrane. During apoptosis processes, on the other hand, PS is exposed to the outside and allows annexin V to bind to it. […] Subsequently, 400 μl of Annexin V Binding Buffer were added to each tube and the cells were analysed on the FACSCalibur flow cytometer instrument (BD Biosciences) (excitation at 488 nm, emission 518 nm and 400 nm for FITC and IP respectively). The results were then analysed with the FlowJo programme.

Assay [4] relates to CaSki cells. The assay is described as above. Type of assay: cell-based. The settings on record: DX 0.5 μM 24 h, FIG. 6. As for the experimental part: as §2
The test system of assay [5] is HeLa cells. The assay is described as above. Type of assay: cell-based. The settings on record: DX 1.5 μM 24 h, FIG. 6. As for the experimental part: as §2
In assay [6] the test system is CaSki cells. Put plainly: MTT cell viability, EX527 and doxorubicin. The format is cell-based. The settings on record: DX 0.5 μM for 16, 40, 64 h. On the procedure: (§3) The observations described above prompted an analysis of whether HPV-positive cells in which SIRT1 is inhibited with consequent reduced expression of E6 and E7 and restoration of p53, could be more sensitive to the treatment with genotoxic drugs, such as doxorubicin (DX, SIGMA ALDRICH). Firstly, cell viability was determined following treatment with EX527 in combination with doxorubicin against HeLa and CaSki cells, using the MTT (3-(4,5-dimethylthiazol-2-yl)-2,5-diphenyltetrazolium bromide; SIGMA-ALDRICH) colorimetric assay. To this purpose, the cells were exposed to a concentration of EX527 of 80 μM or equal volume of solvent, dimethyl sulfoxide (DMSO, SIGMA ALDRICH) for 24 h, after this period elapsed the cells were treated with DX (1.5 μM for HeLa, 0.5 μM for CaSki) for a further 16, 40, 64 h. Subsequently, the supernatant was removed, the well was washed with PBS1× (SIGMA-ALDRICH) and incubated for 2 hours at 37° C. and 5% of CO2 with DMEM medium supplemented with 500 μg/mL MTT solution. […] On these solubilised cells, absorbance was measured at a wavelength of 570 nm, using the Victor3 multiplate reader spectrophotometer (Perkin Elmer). The absorbance value obtained from the sample treated with the carrier alone at the maximum dose was considered equal to 100% viability and the other values were related thereto.

Assay [7] concerns HeLa cells. Nature of the assay: MTT cell viability, EX527 and doxorubicin. Type of assay: cell-based. The settings on record: DX 1.5 μM for 16, 40, 64 h. On the procedure:
as §3

Assay [8] relates to CaSki cells. Nature of the assay: Cell cycle analysis by propidium iodide flow cytometry, EX527 and doxorubicin. The format is cell-based. The settings on record: DX 0.5 μM 16 h. On the procedure: (§4) For this purpose, HeLa and CaSki cells were treated with EX527 (80 μM) for 24 h, or with an equal volume of DMSO solvent and after this period elapsed, they were treated with DX (1.5 μM for HeLa, 0.5 μM for CaSki) for a further 16 h. After this incubation period at 37° C., the cells were labelled with propidium iodide (IP). Propidium iodide (3,8-diamino-5-diethylmethyl aminopropyl-6-phenylphenanthridine diiodide) (IP) is a synthetic dye characterised by low fluorescence (red-orange), capable of selectively binding to nucleic acids. It is known that the DNA content varies according to the phase of the cycle in which a cell is found. In particular, the G2 phase and mitosis (M) have twice as much DNA as the G1 phase, while during the DNA synthesis phase (S phase), the cell has an intermediate amount of DNA between the content in G1 and G2. Since the apoptotic cells, once resuspended in an appropriate buffer, release small DNA fragments, a reduction in IP fluorescence (related to the decrease in DNA content) can be observed in them. […] The cytofluorimetric analysis was performed on the FACSCalibur flow cytometer instrument (BD Biosciences) (excitation at 488 nm and emission 400 nm) and the results were analysed with the FlowJo programme.
In general terms: Flow cytometry measures light scatter and fluorescence of single cells or particles in a stream.

Assay [9] relates to HeLa cells. The description is as above. The format is cell-based. The settings on record: DX 1.5 μM 16 h. On the procedure:
as §4

For `CC(C)C[C@@H](C=O)NC(=O)[C@H](CC(C)C)NC(=O)[C@H](CC(C)C)NC(=O)OCc1ccccc1` [MG132] (Cbz-Leu-Leu-Leu-aldehyde), the “expression of E6 and E7 after DMSO plus MG132” value in assay [1] and in [2] was “recovery in the expression of the tested proteins” throughout.
Take `COc1cccc2c1C(=O)c1c(O)c3c(c(O)c1C2=O)C[C@@](O)(C(=O)CO)C[C@@H]3O[C@H]1C[C@H](N)[C@H](O)[C@H](C)O1` [DX, doxorubicin]: the “percentage of apoptotic cells, DX” value in [3], in assay [4] and in assay [5] was “increase in the percentage of apoptotic cells” in each case. Further, the “mortality rate (MTT), DX alone” value in [6] and in assay [7] was “mortality rate increases more” throughout. The “cell death (sub-G0/G1 phase), DX” value in [8] and in assay [9] was “increase in cell death (sub-G0/G1 phase)” throughout.
